Data taken from US20180228795A1, “COMBINATION THERAPY FOR CANCER” (Eli Lilly and Company, priority 2015, published 2018).

Key:
Test in all cases: Antitumor effects in PDX mouse model of TNBC
Assay type in all cases: in vivo
[1] = system: PDX TNBC Model ST319; conditions: A 10 mg/kg SC BID 3 days on/4 off ×4, B 7.5 mg/kg PO BID×28, versus vehicle
Description: (§1) Establish PDX tumor models from viable human tumor tissue and serially passage in immunocompromised female mice a limited number of times. Using tumor fragments harvested from donor host animals, perform unilateral subcutaneous implants from a specific passage of the PDX tumor model on the flanks of the experimental animals. When tumor volumes reach approximately 150-250 mm^3 in size, randomize the animals by treatment arm by randomization techniques well known in the art and place into their respective treatment groups using 1 animal per treatment group (3 animals in an untreated group). Formulate CHK1 inhibitor, 5-(5-(2-(3-aminopropoxy)-6-methoxyphenyl)-1H-pyrazol-3-ylamino)pyrazine-2-carbonitrile methanesulfonate hydrate, (Compound A) every 14 days in 20% captisol (dissolved in water) and administer subcutaneously twice daily at a dose of 10 mg/kg on days 1/2/3 of a weekly cycle for 4 weeks (SC, BID [3 days on/4 off]×4). Formulate the PI3K/mTOR dual inhibitor, 8-[5-(1-hydroxy-1-methylethyl)pyridin-3-yl]-1-[(2S)-2-methoxypropyl]-3-methyl-1,3-dihydro-2H-imidazo[4,5-c]quinolin-2-one, (Compound B) weekly in 1% (HEC)/0.25% Tween 80 (Polysorbate 80)/0.05% Dow-Corning Antifoam 1510-US and administer by oral gavage twice-daily for 28 days (PO, BID×28) at a dose of 7.5 mg/kg. Dose combination treatment animals with both compounds according to the schedule described above for monotherapy, and dose vehicle treatment animals with vehicle according to the schedule for Compound B.
(§2) Test the combination of Compound A and Compound B, as well as their respective monotherapies, in 40 PDX models (Table 1) of TNBC. Assess antitumor efficacy of the treatment groups by measuring tumor volume via caliper measurements twice a week during the course of the study. Measure body weight twice weekly during the course of the study as a general indicator of tolerability.
(§3) Capture tumor size and body weight twice per week. Estimate tumor volume (V) by using the formula: V=(π/6)×L×W^2 where L=larger of measured diameter and W=smaller perpendicular diameter. Calculate relative tumor volume using the tumor volume measurement taken nearest to the last day of dosing for each animal (T), divided by the baseline tumor volume for that animal (T0), which is the volume recorded on or just prior to the first day of dosing, Y=T/T0. Calculate % ΔT/ΔC values using the formula % ΔT/ΔC=100(YT−1)/(YC−1), whereby YT or YC=geometric mean relative volume of the compound treated group or the control group, respectively. Tumor growth inhibition is observed in those instances where the calculated values for % ΔT/ΔC are less than 100% whereby greater inhibition results in smaller % ΔT/ΔC values. If ΔT<0, then a tumor regression value is calculated instead of % ΔT/ΔC whereby % Regression=100(YT−1). Note that negative values indicate regression. We collectively refer to % ΔT/ΔC and % Regression as % Response.
(§4) Examine relative tumor volume (final volume divided by baseline volume) on the last day of treatment or the last day on which data from all three treatment groups and vehicle is available, if it is earlier than the last day of treatment and at least 14 days after baseline. Expected additive relative volume is determined using the Bliss method (Bliss, C. I., Ann Appl Biol, 1939; 26(3):585-615). Specifically, denoting Y=relative volume, YExp=(Y1*Y2)/YV, where YExp=expected additive relative volume, Y1 and Y2 are the relative volumes in the single agent groups (Compound A and Compound B), and YV is the relative volume in the vehicle group. A range of additivity is defined around the expected additive relative volume via upper and lower limits as follows:
(§5) Yupper=max(2*YExp,YExp+0.2)
(§6) Ylower=min(YExp/2,YExp−0.2)
(§7) The upper limit of the range is the larger of 2-fold above or 20% above the expected additive relative volume, and the lower limit is the smaller of 2-fold below or 20% below the expected additive relative volume. […]

[2] = system: PDX TNBC Model ST069; conditions: A 10 mg/kg SC BID 3 days on/4 off ×4, B 7.5 mg/kg PO BID×28, versus vehicle
Description: as §1, §2, §3, §4, §5, §6, §7

[3] = system: PDX TNBC Model MAXF MX1; conditions: A 10 mg/kg SC BID 3 days on/4 off ×4, B 7.5 mg/kg PO BID×28, versus vehicle
Description: as §1, §2, §3, §4, §5, §6, §7

[4] = system: PDX TNBC Model CTG-0437; conditions: PDX model CTG-0437; A 10 mg/kg SC BID 3 days on/4 off ×4; B 7.5 mg/kg PO BID×28; versus vehicle
Description: as §1, §2, §3, §4, §5, §6, §7

[5] = system: PDX TNBC Model ST430; conditions: A 10 mg/kg SC BID 3 days on/4 off ×4, B 7.5 mg/kg PO BID×28, versus vehicle
Description: as §1, §2, §3, §4, §5, §6, §7

[6] = system: PDX TNBC Model CTG-1350; conditions: PDX model CTG-1350; A 10 mg/kg SC BID 3 days on/4 off ×4; B 7.5 mg/kg PO BID×28; versus vehicle
Description: as §1, §2, §3, §4, §5, §6, §7

[7] = system: PDX TNBC Model MAXF 583; conditions: PDX model MAXF 583; A 10 mg/kg SC BID 3 days on/4 off ×4; B 7.5 mg/kg PO BID×28; versus vehicle
Description: as §1, §2, §3, §4, §5, §6, §7

[8] = system: PDX TNBC Model ST848; conditions: A 10 mg/kg SC BID 3 days on/4 off ×4, B 7.5 mg/kg PO BID×28, versus vehicle
Description: as §1, §2, §3, §4, §5, §6, §7

[9] = system: PDX TNBC Model CTG-0017; conditions: PDX model CTG-0017; A 10 mg/kg SC BID 3 days on/4 off ×4; B 7.5 mg/kg PO BID×28; versus vehicle
Description: as §1, §2, §3, §4, §5, §6, §7

[10] = system: PDX TNBC Model MAXF 1384; conditions: PDX model MAXF 1384; A 10 mg/kg SC BID 3 days on/4 off ×4; B 7.5 mg/kg PO BID×28; versus vehicle
Description: as §1, §2, §3, §4, §5, §6, §7

[11] = system: PDX TNBC Model CTG-1153; conditions: PDX model CTG-1153; A 10 mg/kg SC BID 3 days on/4 off ×4; B 7.5 mg/kg PO BID×28; versus vehicle
Description: as §1, §2, §3, §4, §5, §6, §7

[12] = system: PDX TNBC Model ST518; conditions: A 10 mg/kg SC BID 3 days on/4 off ×4, B 7.5 mg/kg PO BID×28, versus vehicle
Description: as §1, §2, §3, §4, §5, §6, §7

[13] = system: PDX TNBC Model ST1283; conditions: A 10 mg/kg SC BID 3 days on/4 off ×4, B 7.5 mg/kg PO BID×28, versus vehicle
Description: as §1, §2, §3, §4, §5, §6, §7

[14] = system: PDX TNBC Model CTG-0670; conditions: PDX model CTG-0670; A 10 mg/kg SC BID 3 days on/4 off ×4; B 7.5 mg/kg PO BID×28; versus vehicle
Description: as §1, §2, §3, §4, §5, §6, §7

SMILES | % Rsp. (% ΔT/ΔC or % Regression) [1] | % Rsp. (% ΔT/ΔC or % Regression) [2] | % Rsp. (% ΔT/ΔC or % Regression) [3] | % Rsp. (% ΔT/ΔC or % Regression) [4] | % Rsp. (% ΔT/ΔC or % Regression) [5] | % Rsp. (% ΔT/ΔC or % Regression) [6] | % Rsp. (% ΔT/ΔC or % Regression) [7] | % Rsp. (% ΔT/ΔC or % Regression) [8] | % Rsp. (% ΔT/ΔC or % Regression) [9] | % Rsp. (% ΔT/ΔC or % Regression) [10] | % Rsp. (% ΔT/ΔC or % Regression) [11] | % Rsp. (% ΔT/ΔC or % Regression) [12] | % Rsp. (% ΔT/ΔC or % Regression) [13] | % Rsp. (% ΔT/ΔC or % Regression) [14]
CO[C@@H](C)Cn1c(=O)n(C)c2cnc3ccc(-c4cncc(C(C)(C)O)c4)cc3c21 [Compound B, 8-[5-(1-hydroxy-1-methylethyl)pyridin-3-yl]-1-[(2S)-2-methoxypropyl]-3-methyl-1,3-dihydro-2H-imidazo[4,5-c]quinolin-2-one] | 40.3% | 112.0% | 163.0% | 80.3% | 59.2% | 7.7% | 121.1% | 24.6% | 28.1% | 60.3% | 86.5% | 66.5% | 23.3% | 117.6%
COc1cccc(OCCCN)c1-c1cc(Nc2cnc(C#N)cn2)n[nH]1.CS(=O)(=O)O [Compound A, 5-(5-(2-(3-aminopropoxy)-6-methoxyphenyl)-1H-pyrazol-3-ylamino)pyrazine-2-carbonitrile methanesulfonate hydrate] | 8.9% | −79.6% | 126.1% | −87.5% | 80.9% | 20.3% | 9.6% | −50.0% | 52.3% | 52.8% | −23.6% | −23.4% | 0.0% | 112.8%
